Test system: carcinogenic promotion (skin papillomas in mice)
Test: Inhibition of two-step skin carcinogenesis in mice skin
Assay type: in vivo, mouse (female ICR)
Details: DMBA initiator, TPA promoter, 20 weeks; FIG. 28 (NFD 85 nmol), FIG. 29 (lapacoal)
Protocol: Female ICR mice were used as test animals. Fifteen mice were housed in a cage and kept on a commercial pellet diet and drinking water ad libitum until the end of the experiment. The mice were purchased at their age of six-week-old. Dorsal hair of mice was shaved, and next day, 390 nmol of 7,12-dimethylbenz(a)anthracene (DMBA) in 0.1 ml acetone was applied, as an initiator, on the shaved back. One week later, 1.7 nmol of 12-O-tetradecanoylphorbol-13-acetate (TPA) in 0.1 ml acetone was applied, as a promoter, to the same place twice a week. This procedure was repeated for 20 weeks.
Mice were observed once a week for the number of papillomas larger than 1 mm, and the experimental results were given as the percentage of papilloma-bearing mice in each group and the number of papillomas per mouse.

`CC(C)=CCC1=C(O)C(=O)c2ccccc2C1=O` [lapacoal, reference compound] was tested, and the “inhibitory effect on carcinogenic promotion in skin” value was “inhibitory effect”.
